Patent US20140057895A1, “INDAZOLE- AND PYRROLOPYRIDINE-DERIVATIVE AND PHARMACEUTICAL USE THEREOF” (priority 2011, published 2014)
Counter-ions that a name gives are not always drawn.

molecular target: T1, 5-HT4 receptor (Cavia porcellus, UniProt O70528); assay: Test Example 3: Guinea pig 5-HT4 receptor binding assay, [3H]-GR113808, striatum membranes (Table 98); conditions: Guinea pig 5-HT4 receptor binding assay, [3H]-GR113808, striatum membranes; mean value of each group; read-out: IC50
T1 construct: striatum was isolated which was cryopreserved at −80° C. until use; from tissue; host or cells: guinea pig (Slc-Hartley) striatum membranes
T1 sequence (O70528 whole entry): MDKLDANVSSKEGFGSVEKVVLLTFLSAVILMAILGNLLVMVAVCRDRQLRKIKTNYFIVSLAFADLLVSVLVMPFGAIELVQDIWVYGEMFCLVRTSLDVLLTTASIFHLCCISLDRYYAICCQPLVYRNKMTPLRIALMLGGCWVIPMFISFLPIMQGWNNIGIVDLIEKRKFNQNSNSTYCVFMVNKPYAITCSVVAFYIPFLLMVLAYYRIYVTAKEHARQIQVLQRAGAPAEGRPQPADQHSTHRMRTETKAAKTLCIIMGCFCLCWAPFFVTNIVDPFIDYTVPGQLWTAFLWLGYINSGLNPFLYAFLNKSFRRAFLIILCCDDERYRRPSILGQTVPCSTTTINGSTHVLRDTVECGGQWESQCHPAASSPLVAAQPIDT
Protocol: The guinea pig 5-HT4 receptor binding assay and preparations of receptor membrane preparations herein were carried out according to a method of Grossman et al. [see, British J. Pharmacol., (1993) 109, 618].
Slc-Hartley guinea pigs (body weight 300 g to 400 g) were decapitated to remove brain rapidly, and striatum was isolated which was cryopreserved at −80° C. until use. To the obtained tissues were added fifteen fold of Hepes buffer (50 mM, pH 7.4, 4° C.), and the mixture was homogenized by Teflon (trademark) homogenizer and centrifuged at 48,000×g (4° C.) for 15 minutes. To the resulting precipitate was added Hepes buffer (1 ml) to 30 mg by wet weight of tissues, and the mixture was suspended to give receptor membrane preparations.
To an assay tube were added 0.1 nM [^3H]-GR113808 {chemical name: [1-[2-(methylsulfonylamino) ethyl]-4-piperidinyl]methyl 1-methylindole-3-carboxylate}, receptor membrane preparations, and Hepes buffer (50 mM, pH 7.4, 4° C., 1 ml) containing test compounds or 30 μM serotonin; and the mixture was incubated at 37° C. for 30 minutes. On quenching the reaction, the mixture was rapidly filtered on whatman GF/B filter, which was presoaked in 0.1% polyethyleneimine for 1 hour, by using Brandel cell Harvester, and washed with ice-cooled 50 mM Tris-HCl (pH 7.7, 4 ml) three times. To the filter after filtration was added a liquid scintillator (Ecoscint), and then a radioactivity was determined by a liquid scintillation counter.
50% Inhibition concentrations (IC50) were determined from inhibition rates of test compounds to specific bindings which were obtained by subtracting nonspecific bindings from total binding amounts of [^3H]-GR113808. […]

Structure (SMILES)	IC50 [nM]
CCCCN1CCC(c2cnc(-n3nc(C(C)C)c4cccc(F)c43)[nH]2)CC1 [Example 562, 1-[5-(1-butylpiperidin-4-yl)-1H-imidazol-2-yl]-7-fluoro-3-(propan-2-yl)-1H-indazole]	478
CC(C)c1nn(-c2noc(C3CCN(C4CCOCC4)C3)n2)c2c(F)cccc12 (centres unmarked) [Example 456, 7-fluoro-3-(propan-2-yl)-1-{5-[1-(tetrahydro-2H-pyran-4-yl)pyrrolidin-3-yl]-1,2,4-oxadiazol-3-yl}-1H-indazole]	< 20
CC(C)c1nn(-c2noc(C3CCN(CC4CN(C(=O)N(C)C)CCO4)CC3)n2)c2c(F)cccc12 (centres unmarked) [Example 485, 2-[(4-{3-[7-fluoro-3-(propan-2-yl)-1H-indazol-1-yl]-1,2,4-oxadiazol-5-yl}piperidin-1-yl)methyl]-N,N-dimethylmorpholine-4-carboxamide]	21.2
CC(=O)N1CCC(N2CC[C@H](Cc3nc(-n4nc(C(C)C)c5cccc(F)c54)no3)C2)CC1 [Example 495, 1-{4-[(3R)-3-({3-[7-fluoro-3-(propan-2-yl)-1H-indazol-1-yl]-1,2,4-oxadiazol-5-yl}methyl)pyrrolidin-1-yl]piperidin-1-yl}ethanone]	< 20
CC(=O)N1CC(CN2CCC(c3nc(-n4nc(C(C)C)c5ccc(C)cc54)no3)CC2)C1 [Example 471, 1-{3-[(4-{3-[6-methyl-3-(propan-2-yl)-1H-indazol-1-yl]-1,2,4-oxadiazol-5-yl}piperidin-1-yl)methyl]azetidin-1-yl}ethanone trifluoroacetate]	173
CC(=O)N1CCC(N2CCC(c3nc(-n4nc(C(C)C)c5cccc(F)c54)no3)C2)CC1 (centres unmarked) [Example 415, 1-[4-(3-{3-[7-fluoro-3-(propan-2-yl)-1H-indazol-1-yl]-1,2,4-oxadiazol-5-yl}pyrrolidin-1-yl)piperidin-1-yl]ethanone]	< 20
COC(=O)N1CCOC(CN2CCC(c3nc(-n4nc(C(C)C)c5cccc(F)c54)no3)CC2)C1 (centres unmarked) [Example 484, methyl 2-[(4-{3-[7-fluoro-3-(propan-2-yl)-1H-indazol-1-yl]-1,2,4-oxadiazol-5-yl}piperidin-1-yl)methyl]morpholine-4-carboxylate]	28.1
CCCCN1CCC(c2cnc(-n3nc(C(C)C)c4cccc(F)c43)s2)CC1 [Example 563, 1-[5-(1-butylpiperidin-4-yl)-1,3-thiazol-2-yl]-7-fluoro-3-(propan-2-yl)-1H-indazole]	222

Results, then the compound that gave them:

IC50 [nM]	Structure (SMILES)
129	CC(C)c1nn(-c2noc(C3CCN(C4CCC4)CC3)n2)c2cccc(Cl)c12 [Example 421, 4-chloro-1-[5-(1-cyclobutylpiperidin-4-yl)-1,2,4-oxadiazol-3-yl]-3-(propan-2-yl)-1H-indazole]
29.5	CC(=O)N1CCC(N2CCC(c3nc(-n4nc(C(C)C)c5c(C)cccc54)no3)CC2)CC1 [Example 408, 1-(4-{3-[4-methyl-3-(propan-2-yl)-1H-indazol-1-yl]-1,2,4-oxadiazol-5-yl}-1,4′-bipiperidin-1′-yl)ethanone]
< 20	CC(C)c1nn(-c2noc(C3CCN(C4CCCC4)CC3)n2)c2c(F)c(F)ccc12 [Example 452, 1-[5-(1-cyclopentylpiperidin-4-yl)-1,2,4-oxadiazol-3-yl]-6,7-difluoro-3-(propan-2-yl)-1H-indazole trifluoroacetate]
65	Cc1ccc2c(C(C)C)nn(-c3noc(C4CCN(C5CCC5)CC4)n3)c2c1 [Example 433, 1-[5-(1-cyclobutylpiperidin-4-yl)-1,2,4-oxadiazol-3-yl]-6-methyl-3-(propan-2-yl)-1H-indazole]
339	Cc1ccc2c(c1)c(C(C)C)nn2-c1noc(C2CCN(C3CCC3)CC2)n1 [Example 427, 1-[5-(1-cyclobutylpiperidin-4-yl)-1,2,4-oxadiazol-3-yl]-5-methyl-3-(propan-2-yl}-1H-indazole]
140	CC(=O)N1CCC(N2CCC(c3nc(-n4nc(C(C)C)c5ccc(Cl)cc54)no3)CC2)CC1 [Example 412, 1-(4-{3-[6-chloro-3-(propan-2-yl)-1H-indazol-1-yl]-1,2,4-oxadiazol-5-yl}-1,4′-bipiperidin-1′-yl)ethanone]
